Values of other authors in patent US20250144015A1, “Pharmaceutical Compositions” (Extrovis AG, priority 2023, published 2025).

Test system: opioid craving
Settings: single high dose of 16 mg or 32 mg; opioid-dependent patients

For `CO[C@@]12CC[C@@]3(C[C@@H]1[C@](C)(O)C(C)(C)C)C1Cc4ccc(O)c5c4[C@@]3(CCN1CC1CC1)[C@H]2O5` [buprenorphine, [5α,7α(S)]-17-(Cyclopropylmethyl)-α-(1,1-dimethylethyl)-4,5-epoxy-18,19-dihydo-3-hydroxy-6-methoxy-α-methyl-6,14-ethenomorphinan-7-methanol], the “Effect on opioid craving” value is listed as “reduce opioid craving”.
